Results on 17 molecules are retold here after patent publication US20230033360A1, “COMPOUNDS AS CD73 INHIBITORS” (BioArdis LLC, priority 2019, published 2023).

The assay has as its target T1, Recombinant Human 5′-Nucleotidase (CD73) (Homo sapiens, UniProt P21589).
T1 construct: CHO derived CD73 (Trp27-Lys547), with a C-terminal 6-His tag; 6-His (C); purchased R&D 5795-EN; host or cells: CHO
T1 sequence (P21589 27-547): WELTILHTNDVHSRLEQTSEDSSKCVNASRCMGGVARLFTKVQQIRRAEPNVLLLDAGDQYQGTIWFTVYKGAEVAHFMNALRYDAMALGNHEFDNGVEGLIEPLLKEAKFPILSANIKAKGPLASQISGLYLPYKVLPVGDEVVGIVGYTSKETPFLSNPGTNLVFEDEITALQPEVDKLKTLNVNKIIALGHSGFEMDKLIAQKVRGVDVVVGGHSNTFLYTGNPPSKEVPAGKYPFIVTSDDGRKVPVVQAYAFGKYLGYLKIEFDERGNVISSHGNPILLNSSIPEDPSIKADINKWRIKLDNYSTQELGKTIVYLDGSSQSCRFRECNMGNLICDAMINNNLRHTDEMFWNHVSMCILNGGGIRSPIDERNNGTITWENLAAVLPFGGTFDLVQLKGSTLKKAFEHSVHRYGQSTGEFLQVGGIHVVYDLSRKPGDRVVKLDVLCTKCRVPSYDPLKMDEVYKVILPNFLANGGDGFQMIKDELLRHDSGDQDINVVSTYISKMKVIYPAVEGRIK
Nature of the assay: CD73 Enzyme Assay (PiColorLock inorganic phosphate detection, AMP substrate). The class given is biochemical. Conditions: human CD73 0.5 nM, AMP 30 μM, 20 min at 37° C., absorbance 635 nm; read-out: Potency (IC50). An excerpt: Soluble recombinant CD73 catalyzes the conversion of adenosine monophosphate (AMP) to adenosine and inorganic phosphate. The phosphate detection reagent, PiColorLock™ (Innova Bioscience, Cat #303-0125) is based on the change in absorbance of the dye malachite green in the presence of inorganic phosphate (Pi) and this property can be exploited to measure any enzyme that generates Pi. Recombinant Human 5′-Nucleotidase (CD73) (R&D #5795-EN, CHO derived CD73 (Trp27-Lys547), with a C-terminal 6-His tag) was used in the enzymatic assay. This assay, run in a 384-well plate format (Corning® NBS™ 384 well plates, Cat #3640), is a generic method for measuring inorganic phosphate. The basic assay procedure involves two steps: 1) Enzyme reaction: The CD73 enzyme (R&D #5795-EN) is incubated in the presence or absence of compounds. AMP (sigma, cat #01930) is added to start the […] reaction. 2) Detection step: Gold mix is added to the assay system, then stabilizers are added. After incubation the absorbance of the solution is read at OD 635 nm. The recorded OD signal is proportional to the enzyme activity.
Briefly, 25 μl human CD73 (0.5 nM final concentration) in the enzymatic buffer solutions (20 mM Tris, 25 mM NaCl, 1 mM MgCl2, pH 7.5, 0.005% Tween-20) were mixed with various concentrations of the test compound (dissolved in 100% DMSO). These solutions were incubated for 15 min at 25° C., and subsequently 25 μl AMP (30 μM final concentration) was added to start the reaction. The final reaction mixture of enzyme-substrate-compound was incubated for 20 min at 37° C. Meanwhile ‘Gold mix’ was prepared shortly before use by adding 1/100 vol. of accelerator to the PiColorLock™ Gold reagent. 12 μL/well of the ‘Gold mix’ was added to assay plate containing 50 μL enzyme reaction buffer and incubated at 25° C. for 5 min. 5 μL/well stabilizer was added to the assay plate and incubated at 25° C. for 30 min. The absorbance of the well solutions was measured at 635 nm on a Spark 10M instrument (TECAN).
The percent (%) inhibition at each concentration of a compound was calculated relative to the […] value in the Max and Min control wells contained within each assay plate. The Max control wells contained enzyme and substrate as 0% inhibition, and the Min control wells only contained substrate without enzyme as 100% inhibition. The concentrations and percent inhibition values for a test compound are plotted and the concentration of the compound required to achieve 50% inhibition (IC50) was determined with a four-parameter logistic dose response equation.
As a reminder, the IC50 is the point on the concentration scale where inhibition reaches its midpoint. With `O=P(O)(O)CP(=O)(O)OC[C@H]1O[C@@H](c2ncc3c(N4CC5CC5C4)cc(Cl)nn23)[C@H](O)[C@@H]1O` (stereo partly drawn) [Example S39, (((((2R,3S,4R,5S)-5-(4-(3-azabicyclo[3.1.0]hexan-3-yl)-2-chloroimidazo[1,5-b]pyridazin-7-yl)-3,4-dihydroxytetrahydrofuran-2-yl)methoxy)(hydroxy)phosphoryl)methyl)phosphonic acid], the IC50 fell in the range of 1 to 9.9 nM. On to `O=P(O)(O)CP(=O)(O)OC[C@H]1O[C@@H](c2cnc3c(N4CCC[C@H]4c4ccccc4F)cc(Cl)nn23)[C@H](O)[C@@H]1O` [Example S34, (((((2R,3S,4R,5S)-5-(6-chloro-8-((S)-2-(2-fluorophenyl)pyrrolidin-1-yl)imidazo[1,2-b]pyridazin-3-yl)-3,4-dihydroxytetrahydrofuran-2-yl)methoxy)(hydroxy)phosphoryl)methyl)phosphonic acid], for which the IC50 is 1 to 9.9 nM. Under `O=P(O)(O)CP(=O)(O)OC[C@H]1OC(c2cnc3c(N4CCc5ccccc54)cc(Cl)nn23)[C@H](O)[C@@H]1O` (stereo partly drawn) [Example S25, (((((2R,3S,4R)-5-(6-chloro-8-(indolin-1-yl)imidazo[1,2-b]pyridazin-3-yl)-3,4-dihydroxytetrahydrofuran-2-yl)methoxy)(hydroxy)phosphoryl)methyl)phosphonic acid] stands 1 to 9.9 nM; under `O=P(O)(O)CP(=O)(O)OC[C@H]1OC(c2cnc3c(NCc4ccccc4Cl)cc(Cl)nn23)[C@H](O)[C@@H]1O` (stereo partly drawn) [Example S15, (((((2R,3S,4R)-5-(6-chloro-8-((2-chlorobenzyl)amino)imidazo[1,2-b]pyridazin-3-yl)-3,4-dihydroxytetrahydrofuran-2-yl)methoxy)(hydroxy)phosphoryl)methyl)phosphonic acid], 1 to 9.9 nM. With `O=P(O)(O)CP(=O)(O)OC[C@H]1OC(c2cnc3c(NC4CCC(F)(F)C4)cc(Cl)nn23)[C@H](O)[C@@H]1O` (stereo partly drawn) [Example S13, (((((2R,3S,4R)-5-(6-chloro-8-((3,3-difluorocyclopentyl)amino)imidazo[1,2-b]pyridazin-3-yl)-3,4-dihydroxytetrahydrofuran-2-yl)methoxy)(hydroxy)phosphoryl)methyl)phosphonic acid] the figure was 1 to 9.9 nM. As for `O=P(O)(O)CP(=O)(O)OC[C@H]1O[C@H](c2csc3c(NC4CCCC4)nc(Cl)nc23)[C@H](O)[C@@H]1O` [Example S11], the IC50 was 10 to 99 nM. With `C[C@H](Nc1cc(Cl)nn2c([C@@H]3O[C@H](COP(=O)(O)CP(=O)(O)O)[C@@H](O)[C@H]3O)cnc12)c1ccccc1F` [Example S2, [({[(2R,3S,4R,5S)-5-(6-chloro-8-{[(1S)-1-(2-fluorophenyl)ethyl]amino}imidazo[1,2-b]pyridazin-3-yl)-3,4-dihydroxyoxolan-2-yl]methoxy}(hydroxy)phosphoryl)methyl]phosphonic acid] the figure was 1 to 9.9 nM. With `O=P(O)(O)CP(=O)(O)OC[C@H]1OC(c2cnc3c(N4CCCC4)cc(Cl)nn23)[C@H](O)[C@@H]1O` (stereo partly drawn) [Example S20, (((((2R,3S,4R)-5-(6-chloro-8-(pyrrolidin-1-yl)imidazo[1,2-b]pyridazin-3-yl)-3,4-dihydroxytetrahydrofuran-2-yl)methoxy)(hydroxy)phosphoryl)methyl)phosphonic acid] the figure was 1 to 9.9 nM; with `C[C@H](Nc1cc(Cl)nn2c(C3O[C@H](COP(=O)(O)CP(=O)(O)O)[C@@H](O)[C@H]3O)cnc12)c1ccccc1` (stereo partly drawn) [Example S18, (((((2R,3S,4R)-5-(6-chloro-8-(((S)-1-phenylethyl)amino)imidazo[1,2-b]pyridazin-3-yl)-3,4-dihydroxytetrahydrofuran-2-yl)methoxy)(hydroxy)phosphoryl)methyl)phosphonic acid], 1 to 9.9 nM. With `O=P(O)(O)CP(=O)(O)OC[C@H]1O[C@@H](c2cnc3c(N4CC5CCCC5C4)cc(Cl)nn23)[C@H](O)[C@@H]1O` (stereo partly drawn) [Example S4, (((((2R,3S,4R,5S)-5-(6-chloro-8-(hexahydrocyclopenta[c]pyrrol-2 (1H)-yl)imidazo[1,2-b]pyridazin-3-yl)-3,4-dihydroxytetrahydrofuran-2-yl)methoxy)(hydroxy)phosphoryl)methyl) phosphonic acid] the figure was under 1 nM; with `C[C@H](Nc1cc(Cl)nn2c(C3O[C@H](COP(=O)(O)CP(=O)(O)O)[C@@H](O)[C@H]3O)cnc12)c1ccc(F)cc1` (stereo partly drawn) [Example S17, (((((2R,3S,4R)-5-(6-chloro-8-(((S)-1-(4-fluorophenyl)ethyl)amino)imidazo[1,2-b]pyridazin-3-yl)-3,4-dihydroxytetrahydrofuran-2-yl)methoxy)(hydroxy)phosphoryl)methyl)phosphonic acid], under 1 nM.

Consider `C[C@H](Nc1cc(Cl)nn2c(C3O[C@H](COP(=O)(O)CP(=O)(O)O)[C@@H](O)[C@H]3O)cnc12)c1cccc(F)c1` (stereo partly drawn) [Example S16, (((((2R,3S,4R)-5-(6-chloro-8-(((S)-1-(3-fluorophenyl)ethyl)amino)imidazo[1,2-b]pyridazin-3-yl)-3,4-dihydroxytetrahydrofuran-2-yl)methoxy)(hydroxy)phosphoryl)methyl)phosphonic acid], for which the IC50 was in the range of 1 to 9.9 nM. On to `C[C@H](Nc1cc(Cl)nn2c([C@@H]3O[C@H](COP(=O)(O)CP(=O)(O)O)[C@@H](O)[C@H]3O)ncc12)c1ccccc1F` [Example S37, (((((2R,3S,4R,5S)-5-(2-chloro-4-(((S)-1-(2-fluorophenyl)ethyl)amino)imidazo[1,5-b]pyridazin-7-yl)-3,4-dihydroxytetrahydrofuran-2-yl)methoxy)(hydroxy)phosphoryl)methyl)phosphonic acid], for which the IC50 was 1 to 9.9 nM. In the case of `O=P(O)(O)CP(=O)(O)OC[C@H]1O[C@@H](c2ncc3c(N4CC5CCCC5C4)cc(Cl)nn23)[C@H](O)[C@@H]1O` (stereo partly drawn) [Example S9, [({[(2R,3S,4R,5S)-5-(2-chloro-4-{hexahydro-1H-cyclopenta[c]pyrrol-2-yl}imidazo[1,5-b]pyridazin-7-yl)-3,4-dihydroxyoxolan-2-yl]methoxy}(hydroxy)phosphoryl)methyl]phosphonic acid], the concentration for half-maximal inhibition (IC50) was under 1 nM. Under `O=P(O)(O)CP(=O)(O)OC[C@H]1OC(c2cnc3c(OC4CCCC4)cc(Cl)nn23)[C@H](O)[C@@H]1O` (stereo partly drawn) [Example S30, (((((2R,3S,4R)-5-(6-chloro-8-(cyclopentyloxy)imidazo[1,2-b]pyridazin-3-yl)-3,4-dihydroxytetrahydrofuran-2-yl)methoxy)(hydroxy)phosphoryl)methyl)phosphonic acid] stands 1 to 9.9 nM; under `O=P(O)(O)CP(=O)(O)OC[C@H]1OC(c2cnc3c(NCc4ccccc4)cc(Cl)nn23)[C@H](O)[C@@H]1O` (stereo partly drawn) [Example S14, (((((2R,3S,4R)-5-(8-(benzylamino)-6-chloroimidazo[1,2-b]pyridazin-3-yl)-3,4-dihydroxytetrahydrofuran-2-yl)methoxy)(hydroxy)phosphoryl)methyl)phosphonic acid], 1 to 9.9 nM; under `O=P(O)(O)CP(=O)(O)OC[C@H]1OC(c2cnc3c(N4CCCCC4)cc(Cl)nn23)[C@H](O)[C@@H]1O` (stereo partly drawn) [Example S26, (((((2R,3S,4R)-5-(6-chloro-8-(piperidin-1-yl)imidazo[1,2-b]pyridazin-3-yl)-3,4-dihydroxytetrahydrofuran-2-yl)methoxy)(hydroxy)phosphoryl)methyl)phosphonic acid], 1 to 9.9 nM.
